Data published in patent US8648045B2, “VDAC1 compositions and methods of use thereof for regulating apoptosis” (Ben Gurion University of the Negev Research and Development …, priority 2005, dated 2014).
Ends that are not written are not given here.

Legend:
U87 = assay type: cell-based, human
Description: (§1) To determine apoptosis, cells were subjected to staining with 100 μg/ml acridine orange (AcOr) and 100 μg/ml ethidium bromide (EtBr) in PBS. Cells were centrifuged at 1500×g for 5 min at room temperature and resuspended in 25 μl complete medium, to which 2 μl of an AcOr/EtBr solution were added. The cells were then visualized by fluorescence microscopy (Olympus IX51) and images were recorded with an Olympus DP70 camera, using a SWB filter. In each independent experiment, in which early and late apoptotic cells were counted, approximately 250 cells were counted for each treatment.
(§2) The effect of the peptides N-ANTP (having the amino acid sequence of SEQ ID NO:73) and ANTP-LP4-trp (having the amino acid sequence of SEQ ID NO:15) on apoptotoc cell death was examined with cancer cells of various trypes. Table 6 below summarizes the cell line examined and concentration of each pepetide that gave 50% apoptotic cell death (IC50, μM).
(§3) All cells were grown in DMEM accept PC3, D-U145, Molt-4, Jurkat, Mec-1, U937 grown in RPMI medium and HUH7 grown in F12/DMEM medium.

Panc-1 = assay type: cell-based, human
Description: as §1, §2, §3

T-Rex = assay type: cell-based, human
Description: as §1, §2, §3

MOLT-4 = assay type: cell-based, human
Description: as §1, §2, §3

Mec-1 = assay type: cell-based, human
Description: as §1, §2, §3

U937 = assay type: cell-based, human
Description: as §1, §2, §3

[1] = system: PBMCs isolated from healthy donors; assay: Cell death, PI staining and FACS; assay type: cell-based, human; conditions: 90 min, n=34
Description: Peripheral blood mononuclear cells (PBMCs) were isolated from venous blood of patients with chronic lymphocytic leukemia (CLL) by Ficoll-Paque PLUS (GE Healthcare, Israel) density gradient centrifugation. After informed consent, venous blood (10 ml) was drawn from CLL patients satisfying diagnostic criteria for CLL or from normal adult donors. […]
PBMCs (2×10^6 cells/sample) from CLL patients and healthy donors were treated with various concentrations of the peptide Antp-LP4-trp for 90 minutes. Cells were then gently washed once with PBS and stained with propidium iodide (PI) by adding 2.5 μl (1 mg/ml) and immediately analyzed for cell death. The level of cell death, reflected by the percentage of PI-positive cells, was determined by a flow cytometry analysis. […]

HeLa = system: HeLa
Description: as §1
The effect of the peptides N-ANTP (having the amino acid sequence of SEQ ID NO:73) and ANTP-LP4-trp (having the amino acid sequence of SEQ ID NO:15) on apoptotoc cell death was examined with cancer cells of various trypes.
as §3

[2] = system: U937, MOLT4 and MEC-1 cells; assay: Cancer cell death by L- or D-amino acid peptide; assay type: cell-based, human; conditions: average of two experiments
From the text: The results are average of two experiments

[3] = system: PBMCs isolated from CLL patients; assay type: cell-based, human
Description: Peripheral blood mononuclear cells (PBMCs) were isolated from venous blood of patients with chronic lymphocytic leukemia (CLL) by Ficoll-Paque PLUS (GE Healthcare, Israel) density gradient centrifugation. After informed consent, venous blood (10 ml) was drawn from CLL patients satisfying diagnostic criteria for CLL or from normal adult donors. Blood was collected into heparin tubes and diluted 1:1 with balance solution (composed of two stock solutions, A and B, in 1:9 ratio, respectively. Solution A contained: D-glucose 1%, CaCl2 5×10^−5M, MgCl2 9.8×10^−4M, KCl 5.4×10^−3M, Tris 0.145M, pH 7.6. Solution B contained NaCl 0.14M. The balance solution was prepared freshly every week. The diluted blood sample was subsequently carefully layered on Ficoll-Paque Plus (10 ml of diluted blood: 15 ml Ficoll) in 50 ml conical tubes. Tubes were centrifuged at 400×g (with minimal acceleration and deceleration) for 40 minutes at 18-20° C. The mononuclear cells fine layer was transferred to a new centrifuge tube. Cells were washed 3 times with balance solution and re-suspended in a culture medium appropriate to the application.
(§4) PBMCs (2×10^6 cells/sample) from CLL patients and healthy donors were treated with various concentrations of the peptide Antp-LP4-trp for 90 minutes. Cells were then gently washed once with PBS and stained with propidium iodide (PI) by adding 2.5 μl (1 mg/ml) and immediately analyzed for cell death. The level of cell death, reflected by the percentage of PI-positive cells, was determined by a flow cytometry analysis.
(§5) Preipheral blood mononuclear cells (PMBC) isolated from pateints having chronic lymphocytic leukemia (CLL) and MEC-1 cell lines (human chronic B-cell leukemia) were incubated for 90 min with Peptide N-ANTP (SEQ ID NO:73) at concentrations of 10-40 μM. Cell death was measured by PI staning and FACS analysis.
In ex vivo experiments, peripheral blood mononuclear cells (PBMCs) isolated from healthy individuals or CLL patients were incubated for 90 min with the indicated concentration of the ANTP-LP4-trp peptide. Cell death was assayed by PI staining and FACS analysis (healthy donors, n=34; CLL donors, n=39).

MEC-1 cell line = assay type: cell-based, human
Description: as §4, §5

HUH7 = assay type: cell-based
Description: as §1, §2, §3

Hep-G2 = assay type: cell-based
Description: as §1, §2, §3

AsPC1 = assay type: cell-based
Description: as §1, §2, §3

JURKAT = assay type: cell-based
Description: as §1, §2, §3

MCF7 = assay type: cell-based
Description: as §1, §2, §3

H358 = assay type: cell-based
Description: as §1, §2, §3

SKOV-3 = assay type: cell-based
Description: as §1, §2, §3

MDA-MB-231 = assay type: cell-based
Description: as §1, §2, §3

THP-1 = assay type: cell-based
Description: as §1, §2, §3

A375 = assay type: cell-based
Description: as §1, §2, §3

K562 = assay type: cell-based
Description: as §1, §2, §3

T3M4 = assay type: cell-based
Description: as §1, §2, §3

A549 = assay type: cell-based
Description: as §1, §2, §3

PBMCs = assay type: cell-based, human
Description: as §1, §2, §3

PC-3 = assay: Apoptosis induction by peptides, IC50; assay type: cell-based; conditions: PC-3, Prostate adenocarcinoma, Mut-P53, Androg↑
Description: as §1, §2, §3

[4] = assay type: physicochemical
Description: The peptides N-ANTP (C-terminus), ANTP-LP4-trp, TAT-LP4-trp and Tf-LP4-trp were synthesized by GL Biochem (Shanghai, China). The N-terminal peptide was water-soluble, while the other peptides were dissolved in DMSO. The concentration of DMSO in control and peptide-containing samples was up to 4%.

Compound	IC50 (U87)	IC50 (Panc-1)	IC50 (T-Rex)	IC50 (MOLT-4)	IC50 (Mec-1)	IC50 (U937)	IC50 (HeLa)	IC50 [3]	IC50 (MEC-1 cell line)	IC50 (HUH7)	IC50 (Hep-G2)	IC50 (AsPC1)	IC50 (JURKAT)	IC50 (MCF7)	IC50 (H358)	IC50 (SKOV-3)	IC50 (MDA-MB-231)	IC50 (THP-1)	IC50 (A375)	IC50 (K562)	other results
CC[C@H](C)[C@H](NC(=O)[C@H](CCCCN)NC(=O)[C@@H](NC(=O)[C@H](CCC(N)=O)NC(=O)[C@H](CCCNC(=N)N)NC(=O)[C@@H](N)CCSC)[C@@H](C)CC)C(=O)N[C@@H](Cc1c[nH]c2ccccc12)C(=O)N[C@@H](Cc1ccccc1)C(=O)N[C@@H](CCC(N)=O)C(=O)N[C@@H](CC(N)=O)C(=O)N[C@@H](CCCNC(=N)N)C(=O)N[C@@H](CCCNC(=N)N)C(=O)N[C@@H](CCSC)C(=O)N[C@@H](CCCCN)C(=O)N[C@@H](Cc1c[nH]c2ccccc12)C(=O)N[C@@H](CCCCN)C(=O)N[C@@H](CCCCN)C(=O)N[C@@H](CO)C(=O)N[C@@H](Cc1c[nH]c2ccccc12)C(=O)N[C@H](C(=O)N[C@@H](Cc1c[nH]c2ccccc12)C(=O)N[C@@H](CCC(=O)O)C(=O)N[C@@H](CCCCN)C(=O)N[C@@H](CCCCN)C(=O)N[C@@H](CC(C)C)C(=O)N[C@@H](CCC(=O)O)C(=O)N[C@H](C(=O)N[C@@H](C)C(=O)N[C@H](C(=O)N[C@@H](CC(N)=O)C(=O)N[C@@H](CC(C)C)C(=O)N[C@@H](C)C(=O)N[C@@H](Cc1c[nH]c2ccccc12)C(=O)N[C@H](C(=O)N[C@@H](C)C(=O)NCC(=O)N[C@@H](CC(N)=O)C(=O)N[C@@H](CO)C(=O)N[C@@H](CC(N)=O)C(=O)N[C@@H](CCCCN)C(=O)N[C@@H](Cc1c[nH]c2ccccc12)C(=O)N[C@H](C(=O)N[C@@H](Cc1c[nH]c2ccccc12)C(=O)N[C@@H](CCCCN)C(=O)O)[C@@H](C)O)[C@@H](C)O)C(C)C)[C@@H](C)O)[C@@H](C)O [ANTP-LP4-trp]	1.4 ± 0.5 µM	6.4 ± 0.6 µM	6.5 ± 0.9 µM	0.76 ± 0.2 µM	0.53 ± 0.1 µM	0.28 ± 0.1 µM	0.9 ± 0.03 µM	0.2 to 0.25 µM	< 2 µM	0.6 ± 0.3 µM	1.6 ± 0.6 µM	2.7 ± 1.7 µM	0.23 ± 0.1 µM	1.9 ± 0.04 µM	1.5 ± 0.5 µM	1 ± 0.2 µM	1.6 ± 0.6 µM	0.3 ± 0.1 µM	6.4 ± 0.6 µM	0.26 ± 0.1 µM	effect on PBMCs isolated from healthy donors [1]: marginal; cell-death induction, L- versus D-amino acid peptide [2]: irrespective to the D/L configuration; correlation between relative amount of cancer cells (CD19+/CD5+) and peptide-induced cell death ([3]; 0.375 μM): tight correlation; cell death of CLL-derived PBMCs ([3]; 90 min, CLL donors, n=39): highly effective in inducing cancer cell death; IC50 (T3M4): 0.5 ± 0.2 µM; IC50 (A549): 1.5 ± 0.2 µM
MAVPPTYADLGKSARDVFTKGYGFGLMRQIKIWFQNRRMKWKK [N-ANTP]	1.4 ± 0.6 µM	6.2 ± 0.6 µM	5.6 ± 0.9 µM	1.1 ± 0.3 µM	0.93 ± 0.1 µM	0.58 ± 0.2 µM	2.7 ± 0.8 µM	3 to 4 µM	3 to 4 µM	1.3 ± 0.3 µM	3.6 ± 1.3 µM	6.1 ± 0.1 µM	0.35 ± 0.5 µM	2.5 ± 0.6 µM	2.7 ± 0.2 µM	2 ± 0.8 µM	1.5 ± 0.3 µM	0.53 ± 0.03 µM	2.8 ± 0.4 µM	0.6 ± 0.4 µM	IC50 (PBMCs): 10.1 ± 1.2 µM; IC50 (PC-3): 0.4 ± 0.1 µM; solubility [4]: water-soluble; IC50 (T3M4): 1.3 ± 0.4 µM; IC50 (A549): 2.7 ± 0.5 µM
